Series [1] relates to mir-23b miRNA. Kind of series: pGL3-mir-23b sensor luciferase assay in HeLa cells. It is filed as cell-based, human. The note with it: pGL3-mir-23b sensor-expressing HeLa cells. The source says:
In order to assess the ability of miRNAs to bind predicted miRNA binding sites and regulate the expression of the luciferase reporter, in some embodiments, expression systems based on the pGL3-Control (Promega Corp., Madison Wis.) reporter vector and comprising either a mir-15a, mir-21, or a mir-23b miRNA binding site were developed and used in transient transfections of HeLa cells to determine whether the endogenous mir-15a, mir-21, or mir-23b miRNAs, respectively, could repress luciferase reporter gene expression.
The pGL3-mir-23b sensor plasmid was created by cloning the sequence ([…]; SEQ ID NO: 307), representing a sequence complementary to the mir-23b miRNA, into the Xba site of the pGL3-Control plasmid, placing the potential miRNA-binding site in the 3′UTR of the luciferase reporter. This reporter plasmid was used to transfect HeLa cells and it was observed that the endogenous mir-23b miRNA was able to inhibit luciferase expression from the pGL3-mir-23b sensor plasmid. Thus, to further evaluate the ability of the mir-23b miRNA to bind this target site encoded by the pGL3-mir-23b sensor plasmid, and to assess the ability of oligomeric compounds to interfere with mir-23b-mediated silencing, pGL3-mir-23b sensor-expressing HeLa cells were treated with varying concentrations (1.3-, 5- or 20 nM) of the following oligomeric compounds: ISIS Number 327889 (SEQ ID NO: 307), a phosphorothioate uniform 2′-MOE oligomeric compound, and ISIS Number 340925 (SEQ ID NO: 307), a 2′-MOE 5-10-8 gapmer oligomeric compound, both targeting mir-23b. The uniform 2′-MOE phosphorothioate oligomeric compound ISIS Number 327924 (SEQ ID NO: 342) targeting an unrelated miRNA (mir-129-2) was used as a negative control. The data are the average of three trials, and are presented in Table 43 as relative luciferase activity (normalized to pRL-CMV luciferase plasmid only, not treated with oligomeric compound).

The test system of series [2] is PPP2CB protein. Kind of series: Immunoblot of PPP2CB protein in differentiating adipocytes. It is filed as cell-based, human. Particulars: differentiating adipocytes 7- and 10-days post-differentiation, 250 nM. The method, then:
When miRNAs have effects on the expression of downstream genes or proteins encoded by these genes, it is advantageous to measure the protein levels of those gene products, and to do this, western blot (immunoblot) analysis is employed. Immunoblot analysis is carried out using standard methods. Briefly, preadipocytes and differentiating adipocytes were cultured as described previously, and differentiating adipocytes are sampled at several timepoints after stimulation of differentiation. Cells were treated with 250 nM oligomeric compounds and harvested 16-20 h after oligomeric compound treatment. Cells were washed, lysed in RIPA buffer with protease inhibitor cocktail (Roche Diagnostics Corporation, Indianapolis, Ind.), suspended in Laemmli buffer (20 ul/well), boiled for 5 minutes and loaded onto either an 8% SDS-PAGE or a 4-20% gradient SDS-PAGE gel. Gels are run for approximately 1.5 hours at 150 V, and transferred to PVDF membrane for western blotting. […] Bands are visualized and quantitated using a PHOSPHORIMAGER™ (Molecular Dynamics, Sunnyvale Calif.) or the ChemiDoc™ system (Bio-Rad Laboratories, Inc., Hercules, Calif.). Thus, the effects of treatment of many cell types (including, but not limited to, preadipocytes, differentiating adipocytes, HeLa, T-24 and A549 cells) with oligomeric compounds of the present invention on the levels of gene expression products can be assessed. […]

In the oligonucleotide strings, read from the 5' end, every base follows the letter of its sugar. An asterisk marks phosphorothioate; unmarked linkages are phosphodiester. Other units and linkages are bracketed, terminal groups are in braces. A string of capitals states the bases alone. e = 2'-O-(2-methoxyethyl) (MOE); [5mC] = 5-methylcytosine

The results in this text go back to patent US8178506B2, “Oligomeric compounds and compositions for use in modulation of small non-coding RNAs” (Regulus Therapeutics Inc., priority 2003, dated 2012).

As to “327889 (antisense eG*eT*eG*eG*eT*eA*eA*eT*e[5mC]*e[5mC]*e[5mC]*eT*eG*eG*e[5mC]*eA*eA*eT*eG*eT*eG*eA*eT) [compound 327889]”, the Fold change luciferase is given as 3.75 in series [1] (1.3 nM), 3.46 in series [1] (5 nM) and 7.40 in series [1] (20 nM).
For the substance “TGAGCTACAGTGCTTCATCTCA [ISIS 327901] (chemistry not given here) [uniform 2′-MOE PS; targets mir-143]”, the PPP2CB protein levels entry in series [2] is “higher”.
